Patent US9096543B2, “Nuclear transport modulators and uses thereof” (Karyopharm Therapeutics Inc., priority 2012, dated 2015)
Entries after “also recorded” stand apart in the source; their conditions may differ.

How the values were obtained:
[1] = test system: IMQ-induced psoriasis; test: Imiquimod (IMQ)-induced dermal inflammation/psoriasis model (Study 1); format: in vivo, BALB/c mice; conditions: Compound 2 1 μM
Text: Forty (40) male BALB/c mice aged 6 to 8 weeks were used with a pretreatment body weight of 22 to 30 g. The BALB/c mice were randomized into four (4) groups of 10 mice per group. A small area (about 2×2 cm^2) of skin on the dorsum of all the animals was neatly shaved. Group-I animals served as Naïve animals. Psoriasis was induced in Groups II to IV [Group II (IMQ; vehicle), Group III (IMQ; […] Animals were observed daily for a period of 13 days for any treatment-related symptoms. The daily observations included body weight, feed intake, skin thickening, scaling, folding, erythema, nasal discharge, movement, respiration, hair, distended abdomen, skin condition, fur, mucous membrane, presence or absence of secretions, eye condition, tail elevation, motor activity, posture and gait. Severity of damage to the dorsal portion of the skin was assessed by assigning erythema, scaling, folding and skin thickening scores based on external observations of skin, according to rubric in Table 9. […] Compound 2 was prepared by dissolving 1.47 mg of Compound 2 in 300 μL of 100% DMSO.

[2] = test system: collagen-induced arthritis; test: Collagen-Induced Arthritis (CIA) Study No. 2; format: in vivo, Lewis rats
Procedure: To further investigate the effect of the compounds described herein on inflammation biomarkers, a second CIA model was initiated. In this model, the groups were designated as group A (naïve), group B (model; vehicle-treated), group C (Compound 2 at 5 mg/kg QoD). The rats in groups B and C were immunized intradermally with bovine Type II collagen in IFA on day 0, and a booster injection was given on day 7. Compound 2 was orally administered to rats with CIA after the onset of arthritis (Day 11). CIA development was evaluated via macroscopic scoring and measurements of paw swelling. This was assessed every day for the first 5 days after sensitization (day 7), and then twice per week (Monday and Thursday) until Day 28 using the clinical scoring system described in Table 7 above. In addition, ELISAs for CD45, CRP, CCL2/MCP-1, RANKL, TNF-α, IL1-β, IL-6, IL-8, IL-15, IL-17, and measurements for cathepsin K and elastase were performed 4 days (Day 15 of the study) and 10 days (Day 21 of the study—peak for the disease) after compound treatment and at the very end of the study (Day 28) on all group animals. Additionally, on the last day of the study (Day 28), a few representative animals from each group were subjected to three-dimensional micro-tomodensitometry of calcaneus, and bone erosion was quantified.

[3] = test system: MOG-induced EAE; test: MOG-induced experimental autoimmune encephalomyelitis (EAE) murine model; format: in vivo, C57B1/6J mice; conditions: Compound 1 7.5 mg/kg p.o. from day 11, Monday, Wednesday and Friday, 3 weeks
Procedure: The EAE Model is an accepted model for the study of human CNS demyelinating diseases such as multiple sclerosis. The effects of Compound 1 were investigated in MOG-induced in an EAE murine model in female C57B1/6J mice. […] Compound 1 at 7.5 mg/kg was administered orally starting from day 11 (disease onset) on Monday, Wednesday and Friday for 3 consecutive weeks. The disease was induced by the single intradermal injection of MOG emulsified in Complete Freund's Adjuvant (CFA) on study day 0, followed by intraperitoneal supplemental immunostimulation with pertussis toxin (PT) carried out on study day 0, and again 48 hours later on study day 2.

[4] = test system: cytokines GRO/KC, IFNγ, IL-1B, IL-6, IL-10, IL-12p70 and TNFa; test: Plasma cytokine expression after BCCI injury (Luminex); format: in vivo, rats; conditions: 6 mg/kg
Procedure: The expression level of several cytokines in plasma harvested from rats in each treatment group was measured. The samples were received frozen and stored at −80° C. On the day of the experiment, the samples were thawed, diluted four-fold, and analyzed for cytokine expression on a Luminex platform. The samples were analyzed for the cytokines GRO/KC, IFNγ, IL-1B, IL-6, IL-10, IL-12p70 and TNFa, using a multipliex kit manufactured by Millipore. […] The biggest change was in IL-10.

[5] = test system: inflammation-related CRM1 cargo proteins: IκB, Nrf2, HMGB1, FoxP3, FOXO1a, RxRα, PPARγ and NFκB (p65 subunit); test: Immunofluorescence of nuclear localization of inflammation-related CRM1 cargos in HeLa and THP-1 cells; format: cell-based, human; conditions: 1-10 μM Compound 1 with 20 ng/mL TNFα, 4-24 h
Procedure: HeLa and THP-1 (human acute monocytic leukemia) cells were treated with inflammation inducing factor, TNFα, alone or in combination with 1-10 μM of Compound 1 for 4-24 h, and then were analyzed by immunofluorescence (IF) for the nuclear localization of inflammation-related CRM1 cargo proteins: IκB, Nrf2, HMGB1, FoxP3, FOXO1a, RxRα, PPARγ and NFκB (p65 subunit).
For the detection of IkB, Nrf2, RxRα and PPARγ localization, cells were pre-incubated with 10 μM Compound 1 for 30 minutes, followed by incubation with 20 ng/mL TNFα for 4 hrs in serum free media. For detection of HMGB1, FoxP3 and Foxo1A, cells were pre-incubated with 1 μM of Compound 1 for 2 h, followed by incubation with 20 ng/mL TNFα for 24 hours. […] IκB was detected by the primary rabbit monoclonal (E130) antibody from Abcam (ab32518); Nrf2 was detected by the primary rabbit polyclonal antibody from Santa Cruz (sc722); RxR alpha was detected by the primary rabbit polyclonal antibody from Santa Cruz (sc553); PPAR gamma was detected by the primary rabbit monoclonal […] antibody from Cell Signaling (#2443); Foxo1A was detected by the primary rabbit monoclonal [C29H4] antibody from Cell Signaling (#2880); HMGB1 was detected by the primary rabbit polyclonal antibody from Abcam (ab18256); FoxP3 was detected by the primary rabbit polyclonal antibody from Abeam (ab10563). […]

SMILES | body weight, food and water intake [1] | IMQ-induced disease manifestation / disease activity index ([1]; daily Day 1 to Day 13) | joint swelling and clinical scores compared to vehicle-treated rats ([2]; 5 mg/kg QoD orally from Day 11) | bone erosion in the rear paws (micro CT, BMD) ([2]; 5 mg/kg QoD, Day 28) | disease score and severity [3] | plasma IL-10 compared to vehicle-treated control group [4] | nuclear localization of inflammation-related CRM1 cargo proteins [5]
O=C(/C=C\n1cnc(-c2cc(C(F)(F)F)cc(C(F)(F)F)c2)n1)NNC(=O)CN1CCOCC1 [Compound 2, (Z)-3-(3-(3,5-bis(trifluoromethyl)phenyl)-1H-1,2,4-triazol-1-yl)-N′-(2-morpholinoacetyl)acrylohydrazide] | without adversely affecting body weight, food and water intake | diminished IMQ-induced disease manifestation; also recorded: reduction in disease activity index in comparison to the vehicle treated group | significantly reduced joint swelling | significantly reduced bone erosion in the rear paws; also recorded: comparable to that of naïve animals | – | – | –
CC(C)(C)C(=O)NNC(=O)/C=C\n1cnc(-c2cc(C(F)(F)F)cc(C(F)(F)F)c2)n1 [Compound 1, (Z)-3-(3-(3,5-bis(trifluoromethyl)phenyl)-1H-1,2,4-triazol-1-yl)-N′-pivaloylacrylohydrazide] | – | – | – | – | significantly decreased disease score and severity; also recorded: decrease in disease score and severity | reduced IL-10 | demonstrate nuclear localization of the above cargos
